# Test results published in ChEMBL document CHEMBL1909294, “Translating clinical findings into knowledge in drug safety evaluation--drug induced liver injury prediction system (DILIps)” (PLoS Comput Biol, 2011).
# Experiments:
# Hepatotoxicity [1] = test system: Hepatotoxicity;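 on HepSE bilirubinemia: bilirubinemia hepatic side effect score drawn from the DILIps training data, a prediction system for drug-induced liver injury; call rule not given here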;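 on HepSE cholecystitis: Cholecystitis-related hepatic side effect score drawn from the DILIps (drug-induced liver injury prediction) training data set; call rule not given here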;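 on HepSE cholelithiasis: hepatic side effect score for cholelithiasis, drawn from the DILIps training data for predicting drug-induced liver injury; call rule not given here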;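 on HepSE cirrhosis: cirrhosis hepatic side effect score taken from the DILIps (drug-induced liver injury prediction) training set; call rule not given here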;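 on HepSE elevated liver function tests: hepatic side effect score for raised liver function tests, as recorded in the DILIps training set used for predicting drug-induced liver injury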; on HepSE hepatic failure: call rule not given here;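 on HepSE hepatomegaly: hepatic side effect score for hepatomegaly, taken from the training set of the DILIps drug-induced liver injury prediction system; call rule not given here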
# Hepatotoxicity [2] = test system: Hepatotoxicity; remark: listed apart in the source;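 on HepSE bilirubinemia: bilirubinemia hepatic side effect score drawn from the DILIps training data, a prediction system for drug-induced liver injury; call rule not given here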;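 on HepSE cholecystitis: Cholecystitis-related hepatic side effect score drawn from the DILIps (drug-induced liver injury prediction) training data set; call rule not given here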;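 on HepSE cholelithiasis: hepatic side effect score for cholelithiasis, drawn from the DILIps training data for predicting drug-induced liver injury; call rule not given here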;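 on HepSE cirrhosis: cirrhosis hepatic side effect score taken from the DILIps (drug-induced liver injury prediction) training set; call rule not given here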;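 on HepSE elevated liver function tests: hepatic side effect score for raised liver function tests, as recorded in the DILIps training set used for predicting drug-induced liver injury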; on HepSE hepatic failure: call rule not given here;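 on HepSE hepatomegaly: hepatic side effect score for hepatomegaly, taken from the training set of the DILIps drug-induced liver injury prediction system; call rule not given here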
# Hepatotoxicity [3] = test system: Hepatotoxicity; remark: listed apart in the source;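 on HepSE bilirubinemia: bilirubinemia hepatic side effect score drawn from the DILIps training data, a prediction system for drug-induced liver injury; call rule not given here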;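 on HepSE cholecystitis: Cholecystitis-related hepatic side effect score drawn from the DILIps (drug-induced liver injury prediction) training data set; call rule not given here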;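 on HepSE cholelithiasis: hepatic side effect score for cholelithiasis, drawn from the DILIps training data for predicting drug-induced liver injury; call rule not given here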;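 on HepSE cirrhosis: cirrhosis hepatic side effect score taken from the DILIps (drug-induced liver injury prediction) training set; call rule not given here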;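 on HepSE elevated liver function tests: hepatic side effect score for raised liver function tests, as recorded in the DILIps training set used for predicting drug-induced liver injury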; on HepSE hepatic failure: call rule not given here
# Hepatotoxicity [4] = test system: Hepatotoxicity; remark: listed apart in the source;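 on HepSE bilirubinemia: bilirubinemia hepatic side effect score drawn from the DILIps training data, a prediction system for drug-induced liver injury; call rule not given here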;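 on HepSE cholecystitis: Cholecystitis-related hepatic side effect score drawn from the DILIps (drug-induced liver injury prediction) training data set; call rule not given here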;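 on HepSE cholelithiasis: hepatic side effect score for cholelithiasis, drawn from the DILIps training data for predicting drug-induced liver injury; call rule not given here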;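 on HepSE cirrhosis: cirrhosis hepatic side effect score taken from the DILIps (drug-induced liver injury prediction) training set; call rule not given here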;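 on HepSE elevated liver function tests: hepatic side effect score for raised liver function tests, as recorded in the DILIps training set used for predicting drug-induced liver injury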; on HepSE hepatic failure: call rule not given here
# Hepatotoxicity [5] = test system: Hepatotoxicity; remark: listed apart in the source; on HepSE hepatic failure: call rule not given here
# Hepatotoxicity [6] = test system: Hepatotoxicity; remark: listed apart in the source; on HepSE hepatic failure: call rule not given here
# Hepatotoxicity [7] = test system: Hepatotoxicity; remark: listed apart in the source
# Hepatotoxicity [8] = test system: Hepatotoxicity; remark: listed apart in the source
# Hepatotoxicity [9] = test system: Hepatotoxicity; remark: listed apart in the source
# Hepatotoxicity [10] = test system: Hepatotoxicity; remark: listed apart in the source
# Hepatotoxicity [11] = test system: Hepatotoxicity; remark: listed apart in the source
# Hepatotoxicity [12] = test system: Hepatotoxicity; remark: listed apart in the source
# Hepatotoxicity [13] = test system: Hepatotoxicity; remark: listed apart in the source
# Hepatotoxicity [14] = test system: Hepatotoxicity; remark: listed apart in the source
SMILES,HepSE_bilirubinemia (Hepatotoxicity [1]),HepSE_cholecystitis (Hepatotoxicity [2]),HepSE_cholelithiasis (Hepatotoxicity [3]),HepSE_cirrhosis (Hepatotoxicity [4]),HepSE_elevated liver function tests (Hepatotoxicity [5]),HepSE_hepatic failure (Hepatotoxicity [6]),HepSE_hepatic necrosis (Hepatotoxicity [7]),HepSE_hepatitis (Hepatotoxicity [8]),HepSE_hepatomegaly (Hepatotoxicity [9]),HepSE_jaundice (Hepatotoxicity [10]),HepSE_liver disease (Hepatotoxicity [11]),HepSE_liver fatty (Hepatotoxicity [12]),HepSE_liver function tests abnormal (Hepatotoxicity [13]),HepSE_Combined Scores (Hepatotoxicity [14]),also measured
O=C(O)CCC(=O)O.O=C(O[C@H]1CN2CCC1CC2)N1CCc2ccccc2[C@@H]1c1ccccc1 [SOLIFENACIN SUCCINATE],0,0,0,0,0,0,0,0,0,0,0,0,1,1,
CNC(=O)c1cc(Oc2ccc(NC(=O)Nc3ccc(Cl)c(C(F)(F)F)c3)cc2)ccn1 [SORAFENIB],0,1,0,0,0,0,0,0,0,1,0,0,0,2,
CC(C)NCC(O)c1ccc(NS(C)(=O)=O)cc1 (configuration not stated) [SOTALOL],0,0,0,0,0,0,0,0,0,0,0,0,0,0,
CN[C@@H]1[C@H](O)[C@H](NC)[C@H]2O[C@@]3(O)C(=O)C[C@@H](C)O[C@H]3O[C@@H]2[C@H]1O [SPECTINOMYCIN],0,0,0,0,0,0,0,0,0,0,0,0,0,0,
CC(=O)S[C@@H]1CC2=CC(=O)CC[C@]2(C)[C@H]2CC[C@@]3(C)[C@@H](CC[C@@]34CCC(=O)O4)[C@H]12 [SPIRONOLACTONE],0,0,0,0,0,0,0,0,0,0,0,0,0,0,
Cc1cn([C@H]2C=C[C@@H](CO)O2)c(=O)[nH]c1=O [STAVUDINE],1,0,0,0,0,1,0,1,0,0,1,1,0,5,
[H]/N=C(/N)N[C@H]1[C@H](O)[C@@H](O)[C@H](O[C@@H]2O[C@@H](C)[C@](O)(C=O)[C@H]2O[C@@H]2O[C@@H](CO)[C@H](O)[C@@H](O)[C@@H]2NC)[C@@H](N/C(N)=N\[H])[C@@H]1O [STREPTOMYCIN],,,,,,,,,,,,,,,HepSE_bilirubinemia (Hepatotoxicity [1]; Liver): 0; HepSE_cholecystitis (Hepatotoxicity [2]; Liver): 0; HepSE_cholelithiasis (Hepatotoxicity [3]; Liver): 0; HepSE_cirrhosis (Hepatotoxicity [4]; Liver): 0; HepSE_elevated liver function tests (Hepatotoxicity [5]; Liver): 0; HepSE_hepatic failure (Hepatotoxicity [6]; Liver): 0; HepSE_hepatic necrosis (Hepatotoxicity [7]; Liver): 0; HepSE_hepatitis (Hepatotoxicity [8]; Liver): 0; HepSE_hepatomegaly (Hepatotoxicity [9]; Liver): 0; HepSE_jaundice (Hepatotoxicity [10]; Liver): 0; HepSE_liver disease (Hepatotoxicity [11]; Liver): 0; HepSE_liver fatty (Hepatotoxicity [12]; Liver): 0; HepSE_liver function tests abnormal (Hepatotoxicity [13]; Liver): 0; HepSE_Combined Scores (Hepatotoxicity [14]; Liver): 0
CN(N=O)C(=O)N[C@@H](C=O)[C@@H](O)[C@H](O)[C@H](O)CO [STREPTOZOCIN],0,0,0,0,0,0,0,0,0,0,0,0,0,0,
Clc1ccc(CSC(Cn2ccnc2)c2ccc(Cl)cc2Cl)cc1 (configuration not stated) [SULCONAZOLE],0,0,0,0,,0,0,0,0,0,0,0,,0,HepSE_elevated liver function tests (Hepatotoxicity [5]; Liver): 0; HepSE_liver function tests abnormal (Hepatotoxicity [13]; Liver): 0
CC(=O)NS(=O)(=O)c1ccc(N)cc1 [SULFACETAMIDE],0,0,0,0,0,0,1,0,0,0,0,0,0,1,
O=C(O)c1cc(/N=N/c2ccc(S(=O)(=O)Nc3ccccn3)cc2)ccc1O [SULFASALAZINE],0,0,0,1,1,1,1,1,0,1,0,0,1,7,
O=C1C(CC[S+]([O-])c2ccccc2)C(=O)N(c2ccccc2)N1c1ccccc1 (configuration not stated) [SULFINPYRAZONE],0,0,0,0,0,0,0,0,0,0,0,0,0,0,
Cc1noc(NS(=O)(=O)c2ccc(N)cc2)c1C [SULFISOXAZOLE],0,0,0,0,0,0,0,1,0,1,0,0,0,2,
